Results: patent publication EP2077092A2, “System and Methods for Screening or Analyzing Targets” (Taipei Veterans General Hospital, priority 2007, dated 2009)

Key:
Format in all cases: cell-based, Sprague-Dawley (SD) rats
IL-1β = IL-1β ELISA in LPS-treated NSCs; conditions: vs only LPS-treated NSCs, IM 3 µM, p<0.05
Bax = assay: Real-time RT-PCR of Bax mRNA in IM-treated NSCs; conditions: Day 3, Day 5, and Day 7 of IM-treated NSCs
Description: (§1) All animals used were treated in accordance with the Animal Care and Use Committee guideline at Taipei Veterans General Hospital. The protocol of the present study was also approved by the committee. Adult Sprague-Dawley (SD) rats (8 weeks old, 250 g) were anesthetized with intraperitoneal phenobarbital (Sigma, USA), and the location of their brains was mapped. Then, the brain […]. In brief, tissues from the hippocampus of adult rats were dissociated and incubated in Hank's balanced salt solution (HBSS) containing collagenase (78 units/ml) and hyaluronidase (38 units/ml) for 10 minutes at 37°C. The tissues were then mechanically dissected and placed in a trypsin solution (1.33 mg/ml) at 37°C for another 10 minutes. Dissociated cells were then centrifuged at 150 GG for 5 minutes. […] Viable cells were counted by trypan blue exclusion and plated as 5000 cells/200 µL per well in 96-well plates (Coming Inc, Acton, MA, USA) with no substrate pretreatment. […]
(§2) For real-time RT-PCR, the total RNA was extracted using the RNAeasy kit (Qiagen, Valencia, CA, USA). […] The quantification in the unknown samples was performed with LightCycler Relative Quantification Software version 3.3 (Roche Molecular Systems, Alameda, CA, USA). […]

TNF-α = TNF-α ELISA in LPS-treated NSCs; conditions: vs only LPS-treated NSCs, IM 3 µM, p<0.05
NSCs = assay: MTT cell viability assay of IM-treated NSCs; conditions: 3 µM IM, Day 3, Day 5 and Day 7 cultures, p<0.05
Description: as §1, with “37°C.” for “37°C. The tissues were then mechanically dissected and placed in a trypsin solution (1.33 mg/ml) at 37°C for another 10 minutes. Dissociated cells were then centrifuged at 150 GG for 5 minutes.”
IM was purchased from Sigma Chem. Co., St Louis, MO, USA. […] The amount of MTT fromazon product was determined using a microplate reader and the absorbance was measured at 560 nm (SpectraMax 250, Molecular Devices, Sunnyvale, CA, USA). […] The activities of caspases 8 and 3 (Medical and Biological Laboratories Co., Ltd., Nagoya, Japan), and the concentration of IL-6, IL-1 and TNF-α (Pharmingen, San Diego, CA, USA) were determined by ELISA kits and quantified by reading at 490 nm (MRX; Dynatech Laboratories, Chantilly, VA, USA). Each individual sample was analyzed in triplicate.

Bad = assay: Real-time RT-PCR of Bad mRNA in IM-treated NSCs; conditions: Day 3, Day 5, and Day 7 of IM-treated NSCs
Description: as §1, §2

CN(C)CCCN1c2ccccc2CCc2ccccc21 [IM, imipramine]
IL-1β production in the LPS-treated NSCs (IL-1β): effectively reduces | expression of Bax (Bax): not activated | TNF-α production in the LPS-treated NSCs (TNF-α): effectively reduces | cell survival (MTT assay) (NSCs): significantly increased | expression of Bad (Bad): not activated
